According to US11358969B2, “Indole AHR inhibitors and uses thereof” (Ikena Oncology, Inc., priority 2017, dated 2022):
Read-outs that look alike come from different tables or passages of the source.

What was measured:
Cyp1a1 = assay: In Vivo Mouse liver and spleen Cyp1a1 Modulation Assay (Example 1E); parameters: species or system C57BL/6 mice; settings: po, dose 30 mg/kg, with AHR agonist VAG539 30 mg/kg po, qPCR
Protocol: C57BL/6 mice, female, 6-8 weeks old, weighing approximately 18-20 g were purchased from Shanghai Lingchang Biological Technology Co., Ltd or other certified vendors and used in the studies. Animal husbandry, feeding and health conditions are according to animal welfare guidelines. VAG539 (30 mg/kg, po) was used as AHRagonist, and test compounds were formulated in suitable vehicles, typically 0.5% methylcellulose).
C57BL/6 mice (n=3 per group) were treated with AHR agonist alone or with AHR agonist and test compounds. Animals were sacrificed at 4 or 10 hours after treatment upon which their livers and spleens were collected and subsequently analyzed by qPCR. Normalized fold induction of cyp1a1 was determined by comparing mCYP1A1 and mGAPDH counts (ct) according to: normalized fold=2^−ΔΔCt. The percent inhibition was calculated according to: […]

AHR = biological target: T1, AHR (UniProt P35869); assay: DRE-Luciferase Reporter Assay (Alternate Method) (Example 1B); format: cell-based, murine or human; settings: cell line and AHR activating ligand not specified
T1 construct: IC50
T1 sequence (P35869 1-848): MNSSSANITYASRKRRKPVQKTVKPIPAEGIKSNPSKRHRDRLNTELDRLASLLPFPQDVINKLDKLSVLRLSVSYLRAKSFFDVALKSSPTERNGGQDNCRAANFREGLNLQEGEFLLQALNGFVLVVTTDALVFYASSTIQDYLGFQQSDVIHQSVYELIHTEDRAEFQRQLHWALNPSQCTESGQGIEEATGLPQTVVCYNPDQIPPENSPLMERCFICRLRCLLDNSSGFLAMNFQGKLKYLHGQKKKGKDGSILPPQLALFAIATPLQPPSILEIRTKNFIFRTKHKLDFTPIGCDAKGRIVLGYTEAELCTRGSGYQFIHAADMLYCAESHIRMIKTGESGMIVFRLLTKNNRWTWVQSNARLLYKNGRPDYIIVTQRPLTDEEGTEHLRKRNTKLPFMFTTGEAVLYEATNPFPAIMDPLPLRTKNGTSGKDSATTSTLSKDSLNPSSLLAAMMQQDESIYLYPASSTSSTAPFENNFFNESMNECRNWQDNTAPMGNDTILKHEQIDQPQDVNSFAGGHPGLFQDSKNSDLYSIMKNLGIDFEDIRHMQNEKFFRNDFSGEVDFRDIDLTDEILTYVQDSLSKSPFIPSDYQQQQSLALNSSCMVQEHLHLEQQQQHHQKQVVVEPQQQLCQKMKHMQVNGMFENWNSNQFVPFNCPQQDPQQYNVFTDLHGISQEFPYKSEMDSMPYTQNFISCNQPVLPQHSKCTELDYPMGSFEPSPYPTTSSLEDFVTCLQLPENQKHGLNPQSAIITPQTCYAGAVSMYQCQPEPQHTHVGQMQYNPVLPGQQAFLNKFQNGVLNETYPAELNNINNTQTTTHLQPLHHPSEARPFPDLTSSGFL

[1] = Mouse Pharmacokinetic Study (Example 1C); format: in vivo; settings: mouse, plasma, CD-1 mice; for Vd: read-out: Vdss
Summary of the method: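 CD-1 mice dosed intravenously or by oral gavage; plasma sampled at 0.167, 0.5, 1, 2, 4, 6, 12 and 24 h post-dose. Samples analyzed by LC/MS/MS (MRM, positive mode) against a plasma standard curve of 1.0–3000 ng/mL; PK parameters from non-compartmental analysis.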

[2] = In Vitro Mouse liver S9 Metabolic Stability Assay (Example 1D); format: in vitro ADME; settings: CD-1 mouse liver S9, 1 μM compound, 1 mg/mL S9 protein, 37° C., NADPH regenerating system, UDPGA, PAPS
Summary of the method: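 Compound at 1 μM final (0.1% DMSO) incubated at 37° C with pooled CD-1 mouse liver S9 (1 mg/mL protein) plus NADPH-regenerating system, UDPGA and PAPS. Samples at 0 and 60 min quenched in cold acetonitrile with internal standard; LC-MS/MS analyte/IS peak-area ratios give % remaining at 60 min.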

[3] = 4 h, read-out: Cyp1a1 inhibition, Liver, 4 h
[4] = 4 h, read-out: Cyp1a1 inhibition, Spleen, 4 h

Structure (SMILES) | inhibition at 30 mg/kg (Cyp1a1; [3]) [%] | inhibition at 30 mg/kg (Cyp1a1; [4]) [%] | IC50 (AHR) [nM] | inhibition at 30 mg/kg (Cyp1a1; 10 h, read-out: Cyp1a1 inhibition, Liver, 10 h) [%] | bioavailability ([1]; po, 30 mg/kg) [%] | AUC(0-inf) ([1]; iv, 3 mg/kg) [ng·h/mL] | AUC(0-t) ([1]; iv, 3 mg/kg) [ng·h/mL] | clearance ([1]; iv, 3 mg/kg) [mL/min/kg] | half-life ([1]; iv, 3 mg/kg) [h] | Vd ([1]; iv, 3 mg/kg) [L/kg] | AUC(0-inf) ([1]; po, 30 mg/kg) [ng·h/mL] | AUC(0-t) ([1]; po, 30 mg/kg) [ng·h/mL] | Cmax ([1]; po, 30 mg/kg) [ng/mL] | Tmax ([1]; po, 30 mg/kg) [h] | half-life ([1]; po, 30 mg/kg) [h] | Mouse S9 Stability: % Remaining After 60 Minutes [2] [%]
CC(C)c1cnn2c(NCCc3c[nH]c4ccccc34)cc(-c3cccnc3)nc12 [I-46, N-[2-(1H-Indol-3-yl)ethyl]-3-isopropyl-5-(3-pyridyl)pyrazolo[1,5-a]pyrimidin-7-amine] | 96 | 94 | < 500 | – | – | – | – | – | – | – | – | – | – | – | – | –
Fc1cncc(-c2cc(NCCc3c[nH]c4ccccc34)n3nccc3n2)c1 [I-103, 5-(5-Fluoro-3-pyridyl)-N-[2-(1H-indol-3-yl)ethyl]pyrazolo[1,5-a]pyrimidin-7-amine] | 94 | – | < 500 | 0 | 6 | 1140 | 1140 | 43.9 | 0.62 | 1.4 | 671 | 649 | 713 | 0.2 | 2.15 | 7
CC(C)c1cnn2c(N[C@@H]3CCc4[nH]c5ccccc5c4C3)cc(-c3cncc(F)c3)nc12 [I-75a, (3R)—N-[5-(5-fluoro-3-pyridyl)-3-isopropyl-pyrazolo[1,5-a]pyrimidin-7-yl]-2,3,4,9-tetrahydro-1H-carbazol-3-amine] | 55 | – | > 1500 | – | 51 | 2260 | 2670 | 14.4 | 13.8 | 13.7 | – | – | 969 | 2 | 9.8 | 65
C[C@@H](O)c1cnn2c(NCCc3c[nH]c4ccccc34)cc(-c3cncc(F)c3)nc12 [I-222a, (1R)-1-[5-(5-Fluoro-3-pyridyl)-7-[2-(1H-indol-3-yl)ethylamino]pyrazolo[1,5-a]pyrimidin-3-yl]ethanol] | – | – | < 500 | – | 16 | 1330 | 1330 | 36.9 | 2.4 | 1.5 | 2240 | 2230 | 2870 | 0.2 | 1.7 | 1
CC(=O)c1cnn2c(NCCc3c[nH]c4ccccc34)cc(-c3cncc(F)c3)nc12 [I-57, 1-[5-(5-Fluoro-3-pyridyl)-7-[2-(1H-indol-3-yl)ethylamino]pyrazolo[1,5-a]pyrimidin-3-yl]ethanone] | 77 | 66 | < 500 | – | – | – | – | – | – | – | – | – | – | – | – | –
C[C@H](O)c1cnn2c(NCCc3c[nH]c4ccccc34)cc(-c3cncc(F)c3)nc12 [I-222b, (1S)-1-[5-(5-Fluoro-3-pyridyl)-7-[2-(1H-indol-3-yl)ethylamino]pyrazolo[1,5-a]pyrimidin-3-yl]ethanol] | – | – | < 500 | – | 51 | 567 | 564 | 88.1 | 1.8 | 2 | 2870 | 2860 | 2170 | 0.2 | 3.3 | 0
O=C(c1cnn2c(NCCc3c[nH]c4ccccc34)cc(-c3cncc(F)c3)nc12)N1CCOCC1 [I-65, [5-(5-Fluoro-3-pyridyl)-7-[2-(1H-indol-3-yl)ethylamino]pyrazolo[1,5-a]pyrimidin-3-yl]-morpholino-methanone] | – | – | < 500 | – | 7 | 537 | 522 | 93.1 | 0.7 | 2.7 | 373 | 370 | 574 | 0.2 | 0.8 | 0
